Measurements as given in ChEMBL document CHEMBL4706648, “Antitubercular 2-Pyrazolylpyrimidinones: Structure-Activity Relationship and Mode-of-Action Studies” (J Med Chem, 2021).
Values after ≈ are worked out from the molar mass of the structure shown. Active and inactive are the calls of the source. The rule behind the calls is not given here.

Tests used:
[1] = system: Mycobacterium tuberculosis; assay type: functional; conditions: H37Rv, 168 h, time 7 day
[2] = Aqueous solubility of compound at pH 7.4; assay type: physicochemical; conditions: buffer
[3] = system: CHO; assay: Cytotoxicity against CHO cells assessed as reduction in cell viability by MTT assay; assay type: cell-based; conditions: Cricetulus griseus
[4] = Metabolic stability in human liver microsomes assessed as parent compound remaining after 30 mins; assay type: ADME, Microsome; conditions: 0.5 h
[5] = Metabolic stability in rat liver microsomes assessed as parent compound remaining after 30 mins; assay type: ADME, Microsome; conditions: 0.5 h
[6] = Metabolic stability in mouse liver microsomes assessed as parent compound remaining after 30 mins; assay type: ADME, Microsome; conditions: 0.5 h
[7] = Protein binding in human plasma assessed as unbound fraction at 5 uM incubated for 1 hr at 37 degreeC and measured after 4 hrs by ultracentrifugation based LC-MS/MS analysis; assay type: ADME, cell-free; conditions: 5 h
[8] = Apparent half life in C57/BL6 mouse blood at 2 mg/kg, iv administered as bolus dose measured upto 24 hrs by LC-MS/MS analysis; assay type: ADME, organism-based; conditions: C57/BL6, mouse, blood, read-out: t1/2(app) (converted)
[9] = Apparent half life in C57/BL6 mouse blood at 20 mg/kg, po measured upto 24 hrs by LC-MS/MS analysis; assay type: ADME, organism-based; conditions: C57/BL6, mouse, blood, read-out: t1/2(app) (converted)
[10] = Total blood clearance in C57/BL6 mouse blood at 2 mg/kg, iv administered as bolus dose measured upto 24 hrs by LC-MS/MS analysis; assay type: ADME, organism-based
[11] = Volume of distribution during elimination phase in C57/BL6 mouse blood at 2 mg/kg, iv administered as bolus dose measured upto 24 hrs by LC-MS/MS analysis; assay type: ADME, organism-based; conditions: C57/BL6, mouse, blood, read-out: Vd
[12] = Cmax in C57/BL6 mouse blood at 2 mg/kg, iv administered as bolus dose measured upto 24 hrs by LC-MS/MS analysis; assay type: ADME, organism-based; parameters: route intravenous, dose 2 mg/kg, time <=24; conditions: C57/BL6, mouse, blood
[13] = Cmax in C57/BL6 mouse blood at 20 mg/kg, po measured upto 24 hrs by LC-MS/MS analysis; assay type: ADME, organism-based; parameters: route oral, dose 20 mg/kg, time <=24; conditions: C57/BL6, mouse, blood
[14] = Tmax in C57/BL6 mouse blood at 20 mg/kg, po measured upto 24 hrs by LC-MS/MS analysis; assay type: ADME, organism-based; conditions: C57/BL6, mouse, blood, read-out: Tmax
[15] = AUC (0 to infinity) in C57/BL6 mouse blood at 2 mg/kg, iv administered as bolus dose measured upto 24 hrs by LC-MS/MS analysis; assay type: ADME, organism-based; parameters: route intravenous, dose 2 mg/kg, time <=24; conditions: C57/BL6, mouse, blood
[16] = AUC (0 to infinity) in C57/BL6 mouse blood at 20 mg/kg, po measured upto 24 hrs by LC-MS/MS analysis; assay type: ADME, organism-based; parameters: route oral, dose 20 mg/kg, time <=24
[17] = Oral bioavailability in C57/BL6 mouse blood at 20 mg/kg measured upto 24 hrs by LC-MS/MS analysis; assay type: ADME, organism-based; conditions: C57/BL6, mouse, blood
[18] = Kinetic solubility of compound at 200 uM at pH 7.4 measured after 20 hrs by HPLC-DAD analysis; assay type: physicochemical; conditions: buffer, pH 7.4, 20 h
[19] = Drug metabolism in C57/BL6 mouse blood assessed as glucuronide metabolite formation by HPLC analysis; assay type: ADME, tissue-based
[20] = Intrinsic clearance in C57/BL6 mouse blood at 2 mg/kg, iv administered as bolus dose measured upto 24 hrs by LC-MS/MS analysis; assay type: ADME, organism-based; conditions: in vivo
[21] = system: Mycobacterium tuberculosis; assay: Antimycobacterial activity against wild-type Mycobacterium tuberculosis H37Rv assessed as inhibition of bacterial growth grown under middlebrook 7H9 medium incubated for 7 days by alamar blue broth microdilution method; assay type: functional; conditions: 168 h, time 7 day
[22] = system: Mycobacterium tuberculosis; assay: Bactericidal activity against Mycobacterium tuberculosis H37Rv assessed as reduction in CFU grown under middlebrook 7H9/OADC-Glycerol-Tween80 medium at 1 to 2 times MIC incubated for 7 days; assay type: functional; conditions: time 7 day
[23] = system: Mycobacterium tuberculosis; assay: Antimycobacterial activity against mmpL3 gene silenced Mycobacterium tuberculosis H37Rv assessed as inhibition of bacterial growth grown under middlebrook 7H9 medium incubated for 7 days by alamar blue broth microdilution method; assay type: functional, organism-based; conditions: time 7.0 day
[24] = system: HepG2; assay: Antiproliferative activity against human HepG2 cells assessed as reduction in cell viability grown under glucose medium by MTT assay; assay type: functional, cell-based
[25] = system: Mycobacterium tuberculosis; assay type: functional; conditions: H37Rv, 168 h, time 7 day; remark: listed apart in the source
[26] = system: Mycobacterium tuberculosis; assay type: functional; conditions: H37Rv, 168 h, time 7 day; remark: listed apart in the source
[27] = system: Mycobacterium tuberculosis; assay type: functional; conditions: H37Rv, 168 h, time 7 day; remark: listed apart in the source
[28] = system: Mycobacterium tuberculosis; assay type: functional; conditions: H37Rv, 168 h, time 7 day; remark: listed apart in the source
[29] = system: Mycobacterium tuberculosis; assay type: functional; conditions: H37Rv, 168 h, time 7 day; remark: listed apart in the source
[30] = system: HepG2; assay: Antiproliferative activity against human HepG2 cells assessed as reduction in cell viability grown under galactose medium by MTT assay; assay type: functional, cell-based
[31] = Lipophilicity, log D of the compound in n-octanol and phosphate buffer at pH 7.4 measured after 3 hrs by HPLC-DAD analysis; assay type: physicochemical
[32] = Metabolic stability in human liver microsomes assessed as parent compound remaining at 1 uM in presence of NADPH by LC-MS/MS analysis; assay type: ADME, Microsome
[33] = Metabolic stability in rat liver microsomes assessed as parent compound remaining at 1 uM in presence of NADPH by LC-MS/MS analysis; assay type: ADME, Microsome
[34] = Metabolic stability in mouse liver microsomes assessed as parent compound remaining at 1 uM in presence of NADPH by LC-MS/MS analysis; assay type: ADME, Microsome
[35] = Solubility of compound at 3 uM; assay type: physicochemical
[36] = biological target: Voltage-gated inwardly rectifying potassium channel KCNH2 (Homo sapiens, UniProt Q12809); assay: Inhibition of human ERG
[37] = system: Mycobacterium tuberculosis; assay type: functional; conditions: H37Rv, time 6.0 hrs
[38] = system: Mycobacterium tuberculosis; assay type: functional; conditions: H37Rv, time 6.0 hrs; remark: listed apart in the source
[39] = system: Mycobacterium tuberculosis; assay type: functional; conditions: H37Rv, time 6.0 hrs; remark: listed apart in the source
[40] = system: Mycobacterium tuberculosis; assay type: functional; conditions: H37Rv, time 6.0 hrs; remark: listed apart in the source
[41] = system: Mycobacterium tuberculosis; assay type: functional; conditions: H37Rv, time 6.0 hrs; remark: listed apart in the source
[42] = system: Mycobacterium tuberculosis; assay type: functional; conditions: H37Rv, time 6.0 hrs; remark: listed apart in the source
[43] = system: Mycobacterium tuberculosis; assay type: functional; conditions: H37Rv, time 6.0 hrs; remark: listed apart in the source
[44] = system: Mycobacterium tuberculosis; assay: Upregulation of rv2384 in Mycobacterium tuberculosis H37Rv incubated for 6 hrs by microarray based assay; assay type: functional
[45] = system: Mycobacterium tuberculosis; assay: Upregulation of rv2385 in Mycobacterium tuberculosis H37Rv incubated for 6 hrs by microarray based assay; assay type: functional
[46] = system: Mycobacterium tuberculosis; assay type: functional; conditions: H37Rv, time 6.0 hrs; remark: listed apart in the source
[47] = system: Mycobacterium tuberculosis; assay: Upregulation of rv1342 in Mycobacterium tuberculosis H37Rv assessed as fold change incubated for 6 hrs by microarray based assay; assay type: functional
[48] = system: Mycobacterium tuberculosis; assay: Upregulation of rv1343 in Mycobacterium tuberculosis H37Rv assessed as fold change incubated for 6 hrs by microarray based assay; assay type: functional
[49] = system: Mycobacterium tuberculosis; assay: Upregulation of rv1344 in Mycobacterium tuberculosis H37Rv assessed as fold change incubated for 6 hrs by microarray based assay; assay type: functional
[50] = system: Mycobacterium tuberculosis; assay: Upregulation of rv1345 in Mycobacterium tuberculosis H37Rv assessed as fold change incubated for 6 hrs by microarray based assay; assay type: functional
[51] = system: Mycobacterium tuberculosis; assay: Upregulation of rv1346 in Mycobacterium tuberculosis H37Rv assessed as fold change incubated for 6 hrs by microarray based assay; assay type: functional
[52] = system: Mycobacterium tuberculosis; assay: Upregulation of rv1347 in Mycobacterium tuberculosis H37Rv assessed as fold change incubated for 6 hrs by microarray based assay; assay type: functional
[53] = system: Mycobacterium tuberculosis; assay: Upregulation of rv1348 in Mycobacterium tuberculosis H37Rv assessed as fold change incubated for 6 hrs by microarray based assay; assay type: functional
[54] = system: Mycobacterium tuberculosis; assay: Upregulation of rv1349 in Mycobacterium tuberculosis H37Rv assessed as fold change incubated for 6 hrs by microarray based assay; assay type: functional
[55] = system: Mycobacterium tuberculosis; assay: Upregulation of rv3269 in Mycobacterium tuberculosis H37Rv incubated for 6 hrs by microarray based assay; assay type: functional
[56] = system: Mycobacterium tuberculosis; assay: Upregulation of rv3270 in Mycobacterium tuberculosis H37Rv incubated for 6 hrs by microarray based assay; assay type: functional
[57] = system: Mycobacterium tuberculosis; assay type: functional; conditions: H37Rv, 168 h, time 7 day; remark: listed apart in the source
[58] = system: Mycobacterium tuberculosis; assay type: functional, H37Rv; conditions: time 7 day
[59] = Metal chelating activity assessed as Fe2+-compound complex formation by measuring decrease in band intensity at 10 uM measured after 1 hr in presence of ferrous sulphate by UV-Visible spectrophotometric analysis
[60] = Metal chelating activity assessed as Fe2+-compound complex formation by measuring shift in absorbance at 10 uM at 285 nm measured after 1 hr in presence of ferrous sulphate by UV-Visible spectrophotometric analysis

Chain of Voltage-gated inwardly rectifying potassium channel KCNH2 (Q12809 whole entry): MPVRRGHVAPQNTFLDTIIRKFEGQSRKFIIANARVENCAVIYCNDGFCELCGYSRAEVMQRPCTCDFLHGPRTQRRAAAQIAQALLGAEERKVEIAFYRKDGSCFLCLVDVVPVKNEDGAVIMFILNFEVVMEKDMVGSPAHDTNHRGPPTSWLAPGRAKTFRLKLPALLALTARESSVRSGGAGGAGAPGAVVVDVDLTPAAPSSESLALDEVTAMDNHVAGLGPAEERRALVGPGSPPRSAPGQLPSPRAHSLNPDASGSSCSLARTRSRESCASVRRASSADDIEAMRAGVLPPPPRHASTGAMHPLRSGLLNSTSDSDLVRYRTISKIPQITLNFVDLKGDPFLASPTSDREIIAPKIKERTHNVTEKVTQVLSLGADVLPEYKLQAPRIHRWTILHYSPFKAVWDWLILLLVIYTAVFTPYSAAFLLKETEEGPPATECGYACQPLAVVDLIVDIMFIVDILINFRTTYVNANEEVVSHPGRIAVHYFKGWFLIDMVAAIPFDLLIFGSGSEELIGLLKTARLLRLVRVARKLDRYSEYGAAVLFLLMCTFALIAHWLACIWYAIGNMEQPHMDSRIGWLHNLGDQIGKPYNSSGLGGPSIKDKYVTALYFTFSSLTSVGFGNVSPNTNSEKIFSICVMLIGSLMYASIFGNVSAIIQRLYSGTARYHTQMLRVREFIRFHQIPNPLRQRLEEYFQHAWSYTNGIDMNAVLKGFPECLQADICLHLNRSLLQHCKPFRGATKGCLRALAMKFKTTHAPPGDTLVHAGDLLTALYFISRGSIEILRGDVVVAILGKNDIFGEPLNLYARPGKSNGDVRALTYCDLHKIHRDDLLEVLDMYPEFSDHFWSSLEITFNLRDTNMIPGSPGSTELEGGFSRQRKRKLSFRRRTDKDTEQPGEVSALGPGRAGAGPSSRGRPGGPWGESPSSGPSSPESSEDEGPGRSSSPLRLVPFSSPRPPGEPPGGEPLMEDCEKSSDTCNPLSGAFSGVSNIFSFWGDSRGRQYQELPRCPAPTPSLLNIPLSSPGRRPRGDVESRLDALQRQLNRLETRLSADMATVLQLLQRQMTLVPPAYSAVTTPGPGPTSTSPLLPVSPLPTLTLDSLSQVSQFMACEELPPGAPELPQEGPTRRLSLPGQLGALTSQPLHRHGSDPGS

SMILES: CCNc1cc(C)nn1-c1nc(-c2cccnc2)cc(=O)[nH]1
- MIC [1]: 6.25 µM (≈ 1.85 µg/mL)
- solubility [2]: 90 µM (≈ 26.7 µg/mL)
- IC50 [3]: > 50 µM
- Stabilty [4]: 80%
- Stabilty [5]: 95%
- Stabilty [6]: 94%
- Fu [7]: 0.009
- half-life [8]: 4 h
- half-life [9]: 6.1 h
- clearance [10]: 0.4 mL/min/kg
- Vd [11]: 0.1 L/kg
- Cmax [12]: 33.1 µM
- Cmax [13]: 104 µM
- Tmax [14]: 1 h
- AUC(0-inf) [15]: 256 µM·h
- AUC(0-inf) [16]: 1090 µM·h
- bioavailability [17]: 44%
- Kinetic_solubility [18]: 90 µM
- Drug metabolism [19]: Metabolite_Detected
- CL [20]: 34 mL/min/kg
- MIC [21]: 5.8 µM (≈ 1.72 µg/mL)
- Activity [22]: 2 log10CFU
- Activity [23]: Active

SMILES: Cc1cc(C)n(-c2nc(O)cc(-c3ccccc3)n2)n1
- IC50 [24]: 4 µM
- MIC [25]: 0.6 µM (≈ 0.16 µg/mL)
- MIC [26]: 0.02 µM (≈ 0.00533 µg/mL)
- MIC [1]: 1.5 µM (≈ 0.399 µg/mL)
- MIC [27]: 0.3 µM (≈ 0.0799 µg/mL)
- MIC [28]: 0.4 µM (≈ 0.107 µg/mL)
- MIC [29]: 1.5 µM (≈ 0.399 µg/mL)
- IC50 [30]: 4 µM
- solubility [2]: 10 µM (≈ 2.66 µg/mL)
- logD at 3 h [31]: 2.5
- Stabilty [32]: 98%
- Stabilty [33]: 69%
- Stabilty [34]: 22%
- IC50 [3]: 8 µM
- solubility at 3 µM [35]: 180 µM (≈ 47.9 µg/mL)
- IC50 [36]: > 30 µM
- MIC [21]: 1.7 µM (≈ 0.453 µg/mL)
- Activity [23]: Active

SMILES: CO[C@H]1/C=C/O[C@@]2(C)Oc3c(C)c(O)c4c(O)c(c(/C=N/N5CCN(C)CC5)c(O)c4c3C2=O)NC(=O)/C(C)=C\C=C\[C@H](C)[C@H](O)[C@@H](C)[C@@H](O)[C@@H](C)[C@H](OC(C)=O)[C@@H]1C [RIFAMPIN]
- Activity [22]: 2 log10CFU

SMILES: Cc1cc(Nc2ccccn2)n(-c2nc(C(F)(F)F)cc(=O)[nH]2)n1
- MIC [1]: 0.9 µM (≈ 0.303 µg/mL)
- solubility [2]: 25 µM (≈ 8.41 µg/mL)
- IC50 [3]: 23 µM
- Stabilty [4]: > 99%
- Stabilty [5]: 96%
- Stabilty [6]: > 99%
- Kinetic_solubility [18]: 25 µM
- Activity [37]: Active
- Activity [38]: Active
- Activity [39]: Active
- Activity [40]: Active
- Activity [41]: Active
- Activity [42]: Active
- Activity [43]: Active
- Activity [44]: Active
- Activity [45]: Active
- Activity [46]: Active
- fold change (FC) [47]: 2
- fold change (FC) [48]: 2
- fold change (FC) [49]: 2
- fold change (FC) [50]: 2
- fold change (FC) [51]: 2
- fold change (FC) [52]: 2
- fold change (FC) [53]: 2
- fold change (FC) [54]: 2
- Activity [55]: Active
- Activity [56]: Active
- MIC [57]: 0.12 µM (≈ 0.0404 µg/mL)
- fold change (FC) [58]: >=32
- Activity [59]: Active
- deltaA [60]: 300 nm
